In ChEMBL document CHEMBL6074652, “New rhodol-sulforaphane conjugates as innovative isothiocyanate-based cytotoxic agents for cancer cells” (Eur J Med Chem, 2024):
Calls of active or inactive are those of the source. No cut-off for these calls is given here.

What was measured:
Jurkat [1] = test: Cytotoxicity against human Jurkat cells at 6 uM in presence of iron-chelator o-phenanthroline by trypan blue staining based MTT assay; type: functional, cell-based
Jurkat [2] = test: Induction of DNA damage in human Jurkat cells assessed as fold increase in H2AX phosphorylation expression at 4 to 8 uM incubated for 30 mins by flow cytometric analysis; type: functional; details: dose 4-8 µM, 0.5 h
Jurkat [3] = test: Induction of DNA damage in human Jurkat cells at 6 uM assessed as nuclear diffusion factor incubated for 1 hr in presence of iron-chelator o-phenanthroline by fast halo based fluorescence microscopic analysis; type: functional, cell-based
RPMI-1788 [4] = test: Cytotoxicity against human RPMI-1788 cells assessed as reduction in cell viability incubated for 24 hrs by trypan blue staining based MTT assay; type: functional; details: dose 0-8 µM
Jurkat [5] = test: Induction of apoptosis in human Jurkat cells assessed as appearance of cup-shaped masses pretreated with compound for 1 hr and measured after 5 hrs by uranyl acetate and lead citrate staining based transmission electron microscopic analysis; type: functional, cell-based; details: time 6.0 hrs
Jurkat [6] = test: Induction of apoptosis in human Jurkat cells assessed as increase in caspase-3 activity incubated for 2 hrs by colorimetric protease assay; type: functional, cell-based; details: dose 2-6 µM
TK6 [7] = test: Cytotoxicity against human TK6 cells assessed as reduction in cell viability at 0 to 6 uM incubated for 24 hrs by trypan blue staining based MTT assay; type: functional; details: dose 0-6 µM
MOLM-13 [8] = test: Cytotoxicity against human MOLM-13 cells assessed as reduction in cell viability at 0 to 8 uM incubated for 24 hrs by trypan blue staining based MTT assay; type: functional; details: dose 0-8 µM
Jurkat [9] = test: Induction of DNA damage in human Jurkat cells measured at 1 hr; type: functional, cell-based; details: dose 6.0 µM
OCI-AML-3 [10] = test: Cytotoxicity against human OCI-AML-3 cells assessed as reduction in cell viability at 0 to 8 uM incubated for 24 hrs by trypan blue staining based MTT assay; type: functional; details: dose 0-8 µM
Jurkat [11] = test: Induction of apoptosis in human Jurkat cells assessed as increase in caspase-8 activity incubated for 2 hrs by colorimetric protease assay; type: functional, cell-based; details: dose 2-6 µM
MV4-11 [12] = test: Cytotoxicity against human MV4-11 cells assessed as reduction in cell viability at 0 to 8 uM incubated for 24 hrs by trypan blue staining based MTT assay; type: functional; details: dose 0-8 µM
Jurkat [13] = test: Cytotoxicity against human Jurkat cells assessed as inhibition of cell viability incubated for 72 hrs by trypan blue staining based MTT assay; type: functional
RPMI-1788 [14] = test: Cytotoxicity against human RPMI-1788 cells assessed as reduction in cell viability at 0 to 8 uM incubated for 24 hrs by trypan blue staining based MTT assay; type: functional; details: dose 0-8 µM
TK6 [15] = test: Induction of DNA damage in human TK6 cells assessed as micronuclei formation at >4 uM incubated for 4 hrs by May-Grunwald/Giemsa staining based microscopic analysis; type: functional, cell-based
Jurkat [16] = test: Induction of apoptosis in human Jurkat cells assessed as appearance of micronuclei pretreated with compound for 1 hr and measured after 5 hrs by uranyl acetate and lead citrate staining based transmission electron microscopic analysis; type: functional, cell-based; details: time 6.0 hrs
MOLM-13 [17] = test: Cytotoxicity against human MOLM-13 cells assessed as reduction in cell viability incubated for 24 hrs by trypan blue staining based MTT assay; type: functional; details: dose 0-8 µM
MV4-11 [18] = test: Cytotoxicity against human MV4-11 cells assessed as reduction in cell viability incubated for 24 hrs by trypan blue staining based MTT assay; type: functional; details: dose 0-8 µM
Jurkat [19] = test: Induction of apoptosis in human Jurkat cells assessed as appearance of chromatin condensation pretreated with compound for 1 hr and measured after 5 hrs by uranyl acetate and lead citrate staining based transmission electron microscopic analysis; type: functional, cell-based; details: time 6.0 hrs
Jurkat [20] = test: Induction of DNA damage in human Jurkat cells assessed as single strand breaks at 8 uM by measuring nuclear diffusion factor measured after 3 hrs by fast halo based fluorescence microscopic analysis relative to control; type: functional
TK6 [21] = test: Induction of DNA damage in human TK6 cells assessed as accumulation of single strand breaks at 2 to 8 uM by measuring nuclear diffusion factor by fast halo based fluorescence microscopic analysis; type: functional, cell-based; details: dose 2-8 µM
Jurkat [22] = test: Induction of DNA damage in human Jurkat cells assessed as accumulation of single strand breaks at 2 to 6 uM under 4 degreeC incubated for 1 hr by measuring nuclear diffusion factor by fast halo based fluorescence microscopic analysis; type: functional, cell-based; details: dose 2-6 µM
Jurkat [23] = test: Cytotoxicity against human Jurkat cells assessed as cell growth inhibition under 4 degreeC incubated for 72 hrs by trypan blue staining based MTT assay; type: functional
U-937 [24] = test: Cytotoxicity against human U-937 cells assessed as reduction in cell viability incubated for 24 hrs by trypan blue staining based MTT assay; type: functional; details: dose 0-8 µM
TK6 [25] = test: Cytotoxicity against human TK6 cells assessed as reduction in cell viability incubated for 24 hrs by trypan blue staining based MTT assay; type: functional; details: dose 0-6 µM
Jurkat [26] = test: Induction of apoptosis in human Jurkat cells assessed as cleavage of PARP1 at 4 to 6 uM by flow cytometric analysis; type: functional, cell-based; details: dose 4-6 µM
OCI-AML-3 [27] = test: Cytotoxicity against human OCI-AML-3 cells assessed as reduction in cell viability incubated for 24 hrs by trypan blue staining based MTT assay; type: functional; details: dose 0-8 µM
U-937 [28] = test: Cytotoxicity against human U-937 cells assessed as reduction in cell viability at 0 to 8 uM incubated for 24 hrs by trypan blue staining based MTT assay; type: functional; details: dose 0-8 µM
TK6 [29] = test: Induction of DNA damage in human TK6 cells assessed as micronuclei formation incubated for 4 hrs by May-Grunwald/Giemsa staining based microscopic analysis; type: functional, cell-based; details: dose 1-4 µM
Jurkat [30] = test: Cytotoxicity against human Jurkat cells assessed as cell growth inhibition under 37 degreeC incubated for 72 hrs by trypan blue staining based MTT assay; type: functional
Jurkat [31] = test: Induction of DNA damage in human Jurkat cells assessed as accumulation of single strand breaks at 2 to 8 uM by measuring nuclear diffusion factor by fast halo based fluorescence microscopic analysis; type: functional, cell-based; details: dose 2-8 µM
TK6 [32] = test: Induction of DNA damage in human TK6 cells assessed as micronuclei formation at 4 uM by measuring 1000 binucleated cells incubated for 4 hrs by May-Grunwald/Giemsa staining based microscopic analysis; type: functional
Jurkat [33] = test: Induction of DNA damage in human Jurkat cells assessed as increase in accumulation of single strand breaks by measuring nuclear diffusion factor by fast halo based fluorescence microscopic analysis; type: functional, cell-based; details: dose 0-8 µM
Mitochondrial membrane = test: Induction of mitochondrial membrane potential loss in human Jurkat cells at 2 to 6 uM by flow cytometric analysis; details: dose 2-6 µM
Jurkat [34] = test: Induction of DNA damage in human Jurkat cells at 6 uM assessed as nuclear diffusion factor incubated for 1 hr in presence of rotenone by fast halo based fluorescence microscopic analysis; type: functional, cell-based
Jurkat [35] = test: Cytotoxicity against human Jurkat cells at 6 uM incubated for 1 hr in presence of rotenone by trypan blue staining based MTT assay; type: functional, cell-based
Jurkat [36] = test: Induction of apoptosis in human Jurkat cells assessed as appearance of secondary necrosis pretreated with compound for 1 hr and measured after 5 hrs by uranyl acetate and lead citrate staining based transmission electron microscopic analysis; type: functional, cell-based; details: time 6.0 hrs
Jurkat [37] = test: Induction of DNA damage in human Jurkat cells assessed as fold increase in p53 expression at 4 uM by flow cytometric analysis; type: functional
Jurkat [38] = test: Cytotoxicity against human Jurkat cells assessed as cell survival rate at 30 uM incubated for 72 hrs by trypan blue staining based MTT assay; details: read-out: Survival
Jurkat [39] = test: Induction of DNA damage in human Jurkat cells at 4 uM assessed as nuclear diffusion factor incubated for 1 hr in presence of rotenone by fast halo based fluorescence microscopic analysis; type: functional, cell-based
Jurkat [40] = test: Induction of DNA damage in human Jurkat cells at 4 uM assessed as nuclear diffusion factor incubated for 1 hr in presence of iron-chelator o-phenanthroline by fast halo based fluorescence microscopic analysis; type: functional, cell-based
TK6 [41] = test: Induction of DNA damage in human TK6 cells assessed as micronuclei formation at 2 uM incubated for 4 hrs by May-Grunwald/Giemsa staining based microscopic analysis; type: functional, cell-based
Jurkat [42] = test: Cytotoxicity against human Jurkat cells at 4 uM in presence of iron-chelator o-phenanthroline by trypan blue staining based MTT assay; type: functional, cell-based
Jurkat [43] = test: Cytotoxicity against human Jurkat cells at 4 uM incubated for 1 hr in presence of rotenone by trypan blue staining based MTT assay; type: functional, cell-based
Jurkat [44] = test: Induction of DNA damage in human Jurkat cells assessed as single strand breaks at <32 uM by measuring nuclear diffusion factor by fast halo based fluorescence microscopic analysis; type: functional, cell-based
Jurkat [45] = test: Cytotoxicity against human Jurkat cells assessed as inhibition of cell viability < 32 uM incubated for 72 hrs by trypan blue staining based MTT assay; type: functional

| Structure (SMILES) | fold change (FC) (Jurkat [2]) | Activity (RPMI-1788 [4]) | Activity (Jurkat [6]) | Activity (TK6 [7]) | Activity (MOLM-13 [8]) | Activity (Jurkat [9]) | Activity (OCI-AML-3 [10]) | Activity (Jurkat [11]) | Activity (MV4-11 [12]) | Activity (Jurkat [13]) | IC50 (Jurkat [13]) [µM] | Activity (RPMI-1788 [14]) | Activity (TK6 [15]) | Activity (MOLM-13 [17]) | Activity (MV4-11 [18]) | Activity (Jurkat [20]) [%] | Activity (TK6 [21]) | Activity (Jurkat [22]) | IC50 (Jurkat [23]) [µM] | Activity (U-937 [24]) | other results |
| --- | --- | --- | --- | --- | --- | --- | --- | --- | --- | --- | --- | --- | --- | --- | --- | --- | --- | --- | --- | --- | --- |
| Cc1ccccc1-c1c2ccc(=O)cc-2oc2cc(OCCCCCCN=C=S)ccc12 | 2 | Dose-dependent-effect | Dose-dependent-effect | Active | Active | Dose-dependent-effect | Active | Dose-dependent-effect | Active | Dose-dependent-effect | 5.96 | Active | Active | Dose-dependent-effect | Dose-dependent-effect | 59.2 | Active | Active | 3.99 | Dose-dependent-effect | Activity (Jurkat [1]): Active; Activity (Jurkat [3]): Active; Activity (Jurkat [5]): Active; Activity (Jurkat [16]): Active; Activity (Jurkat [19]): Active; Activity (TK6 [25]): Dose-dependent-effect; Activity (Jurkat [26]): Active; Activity (OCI-AML-3 [27]): Dose-dependent-effect; Activity (U-937 [28]): Active; Activity (TK6 [29]): Dose-dependent-effect; IC50 (Jurkat [30]): 5.96 µM; Activity (Jurkat [31]): Active; Activity (TK6 [32]): 13.07; Activity (Jurkat [33]): Dose-dependent-effect; Activity (Mitochondrial membrane): Active; Activity (Jurkat [34]): Active; Activity (Jurkat [35]): Active; Activity (Jurkat [36]): Active; fold change (FC) (Jurkat [37]): 45.5 |
| C[S+]([O-])CCCCN=C=S (centres undefined) [SULFORAPHANE] | – | – | – | – | – | – | – | – | – | – | 29.7 | – | – | – | – | – | – | – | – | – | viability at 30 µM (Jurkat [38]): 66.2% |
| Cc1ccccc1-c1c2ccc(=O)cc-2oc2cc(OCCOCCN=C=S)ccc12 | 2 | Dose-dependent-effect | Dose-dependent-effect | Active | Active | Dose-dependent-effect | Active | Dose-dependent-effect | Active | Dose-dependent-effect | 3.65 | Active | Active | Dose-dependent-effect | Dose-dependent-effect | 48.7 | Active | Active | 2.54 | Dose-dependent-effect | Activity (Jurkat [39]): Active; Activity (Jurkat [40]): Active; Activity (TK6 [41]): Active; Activity (TK6 [25]): Dose-dependent-effect; Activity (Jurkat [26]): Active; Activity (Jurkat [42]): Active; Activity (OCI-AML-3 [27]): Dose-dependent-effect; Activity (U-937 [28]): Active; Activity (Jurkat [43]): Active; Activity (TK6 [29]): Dose-dependent-effect; IC50 (Jurkat [30]): 3.65 µM; Activity (Jurkat [31]): Active; Activity (TK6 [32]): 19.59; Activity (Jurkat [33]): Dose-dependent-effect; Activity (Mitochondrial membrane): Active; fold change (FC) (Jurkat [37]): 70.4 |
| Cc1ccccc1-c1c2ccc(=O)cc-2oc2cc(OCCCCCCN)ccc12 | – | – | – | – | – | – | – | – | – | – | – | – | – | – | – | – | – | – | – | – | Activity (Jurkat [44]): inactive; Activity (Jurkat [45]): inactive |
